According to US20240398801A1, “TREATMENT OF LEUKEMIA BASED ON LEUKEMIA HIERARCHY IN A PATIENT” (UNIVERSITY HEALTH NETWORK, priority 2021, published 2024):

Legend:
human AML cells = test: Changes in cell type composition after drug treatment (deconvolution of RNA-seq from preclinical studies); type: cell-based
Excerpt: To identify RNA-seq datasets collected from AML samples before and after drug treatment, Applying the search terms “Acute Myeloid Leukemia” and “AML” with the “Homo sapien” and “RNA-sequencing” flags on Gene Expression Omnibus (GEO) and ArrayExpress, we identified 95 datasets posted before Jun. 17, 2021. From these, 53 were inhibitors that met the inclusion criteria of human AML samples with available RNA-sequencing data collected before and after drug treatment. Datasets with only differential expression results or Bigwig files were excluded. Datasets with less than three samples in each treatment group were also excluded, resulting in a total of 47 datasets included in the final analysis. Each dataset was processed and underwent TPM normalization and deconvolution with CIBERSORTx using a signature matrix of seven malignant cell types (LSPC-Quiescent, LSPC-Primed, LSPC-Cycle, GMP-like, ProMono-like, Mono-like, cDC-like). For quality control among cell line samples, the deconvolution correlation values from each sample across every dataset were compared and the jenks natural breaks algorithm was employed to identify cutoffs demarcating low, medium, and high correlation bins. Cell line samples classified as “low-correlation” with a correlation value below 0.437 were excluded from further analysis, leaving 42 datasets spanning 153 treatment conditions.
Relative changes in cell type abundance in each treatment condition were evaluated using Wilcoxon rank-sum tests for technical replicates or Wilcoxon signed-rank tests for biological replicates with paired treatment conditions. For dimensionality reduction with UMAP, we focused exclusively on changes in cell type abundance where the p-value was <0.05 to emphasize the key changes in cell type composition induced by each drug, resulting in 125 treatment conditions spanning 38 studies. Absolute log p-values were used to represent the magnitude of shift in cell type abundance, and cell type changes where p>0.05 were assigned a magnitude of zero. […]

primary AML samples [1] = test: Association of LinClass-7 / LSC17 score with ex vivo drug sensitivity in primary AML drug screens; type: cell-based, human
Procedure: Ex vivo drug response in BEAT-AML samples was measured through the Area Under the dose-response Curve (AUC) metric, wherein a low AUC corresponds to sensitivity while a high AUC corresponds to resistance. AUC values were scaled and multiplied by −1 to represent sensitivity in each treatment condition. Pearson correlation was used to measure association between cell type abundance and drug sensitivities, following recommendations from a benchmarking study by Smirnov et al^97. Associations were depicted using the R package “corrplot”, and drug sensitivity volcano plots were generated using the R package “EnhancedVolcano”. For associations of cell type abundance with clinical and biological features, absolute cell type abundance was always used and pearson correlations were calculated unless otherwise specified.
To derive the LinClass-7 score, logCPM-normalized expression of 16 genes from the LSC17 assay were used as input features for LASSO regression: DNMT3B, GPR56, NGFRAP1, CD34, DPYSL3, SOCS2, MMRN1, KIAA0125, EMP1, NYNRIN, LAPTM4B, CDK6, AKR1C3, ZBTB46, CPXM1, ARHGAP22. The 17th gene, C19orf77, was excluded due to lack of expression data in the Leucegene cohort. LASSO regression was performed on negative PC2 (high in Primitive and low in Mature) with leave-one-out cross validation using the LassoCV function from scikit-learn with a path length of 0.1. Patients from TCGA and Leucegene were combined into a training set, and patients from BEAT-AML were used as a validation set to evaluate the strength of the association between LinClass-7 and PC2.

AML engraftment = test: Patient-derived xenograft (PDX) response of AML patient samples to fedratinib, CC-90009 or their combination; type: in vivo, NOD.SCID mice; settings: for response rate: PDX
Procedure: Using normalized malignant cell type composition data for 46 patient samples used for in vivo fedratinib or CC-90009 treatment, dimensionality reduction was performed and clustering was assigned using the leiden algorithm with a resolution of 0.7, yielding three clusters: Primitive, Mature, Intermediate/GMP. […] Samples were subsequently projected on the reference map for visualization and confirmation of cluster assignments.
Patient samples were classified into response categories by comparing the relative reduction (RR) of AML engraftment in drug-treated mice versus vehicle-treated mice, as per Galkin et al 98. RR was calculated as: ((mean % engraftment in control mice)−(mean % engraftment in drug treated mice))/(mean % engraftment in control mice). Patient samples were classified as Responders if RR in the injected femur (Right Femur, RF) was >50%, classified as Partial Responders if we observed 20 to 50% RR in the RF or >20% in the non-injected femur (Bone Marrow, BM) only, and classified as Non-Responders if there was no statistically significant difference in engraftment levels between control- and drug-treated mice, or if RR was <20% in both RF and BM.
Samples with unknown NPM1 mutation status were subsequently assigned as NPM1 mutant or NPM1 wild-type according to their cluster membership.
NOD.SCID mice were bred and housed in the University Health Network (UHN) animal care facility and all animal experiments were performed in accordance with guidelines approved by the UHN animal care committee. Ten-week-old NOD.SCID mice were irradiated (225 cGy) and pretreated with anti-CD122 antibody (200 μg per mouse), 24 hours prior to transplantation. Viably frozen mononucleated cells from AML patients were thawed, counted, and intrafemorally injected at the dose of 5 million cells per mouse. At day 21 post transplantation, treatment of either CC-90009 or Fedratinib alone with vehicle, or in combination, was initiated twice a day for 2 weeks. CC-90009 was given by intraperitoneal (IP) injections at the dose of 2.5 mg/kg and Fedratinib was dissolved in 0.5% methylcellulose and orally gavaged at 60 mg/kg. Following treatment, levels of AML engraftment were assessed to determine the efficacy of drug treatment against the disease in the mice. Cells collected from the injected right femur, non-injected bone marrow of each individual mouse were stained with human specific antibodies and evaluated by flow cytometry. Antibodies used for assessment of human AML engraftment include: CD45-APC, CD33-PE-Cy5, CD19-V450, CD34-APC-Cy7, CD15-FITC (BD), CD33-PE-Cy5, and CD14-PE (Beckman Coulter).

AML = test: Subgroup analysis of the ALFA-0701 trial by LinClass-7 score; type: in vivo, human
primary AML samples [2] = test: Selinexor in vivo treatment of primary AML samples, cell type abundance by RNA-seq deconvolution; set-up: species or system NSG mice; settings: primary AML samples treated in vivo
Procedure: RNA was extracted from bulk peripheral blood mononuclear cells using an RNeasy Micro Kit (Qiagen). Libraries were constructed using SMART-Seq (Clonetec). A paired-end 50-base-pair flow-cell lane Illumina HiSeq 2000 yielded an average of 240 million aligned reads per sample. To align RNA-seq reads from samples used in selinexor and fedratinib treatments, Illumina paired-end sequence data were analyzed with BWA/v0.6 alignment software with option (-s) to disable Smith-Waterman alignment. Reads were mapped onto GRCh37-lite reference genome and exon-exon junction reference whose coordinates were defined based on transcript annotations in Ensembl/v59. Reads with mapping quality <10 were discarded and duplicate reads were tagged using the Picard's MarkDuplicates program. JAGuaR 2.1 was used to incorporate reads spanning multiple exons into the alignment by introducing large alignment gaps. All transcripts of a given gene were collapsed into a single gene model such that exonic bases were the union of exonic bases that belonged to all known transcripts of the gene. Read counts and subsequently RPKM counts were obtained by counting the fraction of each read that overlapped with an exonic region for that gene. To align RNA-seq reads from functionally annotated LSC fractions, sequence data was aligned against GRCh38 and transcript sequences downloaded from Ensembl build 90 using STAR 2.5.2a. […]

[3] = AMLs with Intermediate/GMP hierarchies
[4] = AMLs with Primitive hierarchies
[5] = added to standard chemotherapy vs chemotherapy alone, LinClass-7 low (mature) AML

## CC1=C(/C=C/C(C)=C/C=C/C(C)=C/C(=O)O)C(C)(C)CCC1 [ATRA]
Human AML cells
  blast population from which differentiation is induced: predominantly from GMP-like blasts

## FC(F)(F)c1ccc(/C=C/c2nc(COc3ccc(CCCCn4ccnn4)cc3)co2)cc1 [Mubritinib]
Primary AML samples [1]; drug screens of Tyner et al and Lee et al
  blasts targeted, from correlation of LinClass-7 score with drug sensitivity: primitive blasts
Primary AML samples [1]; split by LSC17
  difference in ex vivo sensitivity between patient samples with high and low score: no significant difference
Primary AML samples [1]; split by LinClass-7
  difference in ex vivo sensitivity between patient samples with high and low score: stark differences

## O=C1CCC(N2Cc3cc(CNC(=O)C(F)(F)c4ccc(Cl)cc4)ccc3C2=O)C(=O)N1 (stereo not drawn) [CC-90009]
AML engraftment; [3]
  response rate: 83%
AML engraftment; AMLs with Mature hierarchies
  response rate: 88%
AML engraftment; [4]
  response rate: 40%
AML engraftment; Primitive AMLs lacking NPM1c mutation and ETC signatures
  response among Primitive AMLs: favorable response
AML engraftment; Primitive AMLs with NPM1c mutations and electron transport chain signatures
  response among Primitive AMLs: poor response

## Gemtuzumab Ozogamicin [GO]
AML; [5]
  event-free survival: significantly longer
  relapse-free survival: significantly longer
AML; added to standard chemotherapy, LinClass-7 high primitive AML
  survival benefit: no significant survival benefit
AML; added to standard chemotherapy, LinClass-7 low (mature) AML
  overall survival: did not extend

## Cc1cnc(Nc2ccc(OCCN3CCCC3)cc2)nc1Nc1cccc(S(=O)(=O)NC(C)(C)C)c1 [fedratinib]
AML engraftment; [3]
  response rate: 20%
AML engraftment; AMLs with Mature hierarchies
  response rate: 88%
AML engraftment; [4]
  response rate: 46%

## Cc1c(-c2ccc(-c3ccccc3F)cc2)nc2ccc(F)cc2c1C(=O)O [Brequinar]
Human AML cells; accompanying induced differentiation
  Quiescent LSPC abundance after treatment: reduction

## O=C(/C=C\n1cnc(-c2cc(C(F)(F)F)cc(C(F)(F)F)c2)n1)NNc1cnccn1 [Selinexor]
Primary AML samples [2]
  Cycling LSPC population after treatment: depletion
Human AML cells; primary AML samples treated in vitro
  Cycling LSPC population after treatment: depletion

## CC1(C)CCC(c2ccc(Cl)cc2)=C(CN2CCN(c3ccc(C(=O)NS(=O)(=O)c4ccc(N[C@H](CCN5CCOCC5)CSc5ccccc5)c(S(=O)(=O)C(F)(F)F)c4)cc3)CC2)C1 [Navitoclax]
Primary AML samples [1]; split by LSC17
  difference in ex vivo sensitivity between patient samples with high and low score: no significant difference
Primary AML samples [1]; split by LinClass-7
  difference in ex vivo sensitivity between patient samples with high and low score: stark differences
